Experimental data published in article PMC7590683, “Xanthine oxidase inhibitory activity of a new isocoumarin obtained from Marantodes pumilum var. pumila leaves” (BMC Complementary Medicine and Therapies, 2020).
Like-named read-outs stand apart in the source and are kept apart here. Values belong to the compound of their own block, whether it stands above or below them.

How the values were obtained:
xanthine oxidase [1] = tested on: xanthine oxidase; set-up: method as in PMID 18201686; details: cited from earlier work
xanthine oxidase [2] = molecular target: T1, xanthine oxidase (Bos taurus, UniProt P80457); test: In vitro xanthine oxidase inhibitory assay; type: biochemical, cow; details: for inhibition at 6.25 µg/mL: 6.25 μg/mL; for inhibition at 12.5 µg/mL: 12.5 μg/mL; for inhibition at 25 µg/mL: 25 μg/mL; for inhibition at 50 µg/mL: 50 μg/mL; for IC50: mean ± S.E.M., n = 3, read-out: IC50 value of xanthine oxidase inhibition (converted)
T1 construct: xanthine oxidase (cow’s milk) were purchased from Sigma-Aldrich Chemicals; purchased Sigma-Aldrich Chemicals (St. Louis, MO, USA); host or cells: cow's milk (natural source)
Procedure: The xanthine oxidase inhibitory assay was carried out using a previously reported method with slight modifications. […] This was followed by dilution with potassium phosphate buffer (0.05 M, pH 7.5) to achieve the desired concentrations. Each test solution contained 0.5% DMSO. The assay was performed in triplicates in a 96-well microplate. […] Then, 100 μL of substrate solution, xanthine (0.15 mM, pH 7.5), was added before further incubating at 25 °C for 10 min. The final assay mixture was spectrophotometrically measured at 295 nm. Xanthine oxidase inhibitory activity was expressed as the percentage of xanthine oxidase inhibition and calculated using the following formula: %Xanthine Oxidase Inhibition=A−B−C−D/A−B×100

xanthine oxidase [3] = tested on: xanthine oxidase; set-up: method as in PMID 8572586; details: cited from earlier work
xanthine oxidase [4] = tested on: xanthine oxidase; set-up: method as in PMID 30189275; details: better than allopurinol; cited from earlier work
[5] = 100 μg/mL, read-out: Percentage of xanthine oxidase inhibition
[6] = read-out: Percentage of xanthine oxidase inhibition

T1 sequence (P80457 whole entry): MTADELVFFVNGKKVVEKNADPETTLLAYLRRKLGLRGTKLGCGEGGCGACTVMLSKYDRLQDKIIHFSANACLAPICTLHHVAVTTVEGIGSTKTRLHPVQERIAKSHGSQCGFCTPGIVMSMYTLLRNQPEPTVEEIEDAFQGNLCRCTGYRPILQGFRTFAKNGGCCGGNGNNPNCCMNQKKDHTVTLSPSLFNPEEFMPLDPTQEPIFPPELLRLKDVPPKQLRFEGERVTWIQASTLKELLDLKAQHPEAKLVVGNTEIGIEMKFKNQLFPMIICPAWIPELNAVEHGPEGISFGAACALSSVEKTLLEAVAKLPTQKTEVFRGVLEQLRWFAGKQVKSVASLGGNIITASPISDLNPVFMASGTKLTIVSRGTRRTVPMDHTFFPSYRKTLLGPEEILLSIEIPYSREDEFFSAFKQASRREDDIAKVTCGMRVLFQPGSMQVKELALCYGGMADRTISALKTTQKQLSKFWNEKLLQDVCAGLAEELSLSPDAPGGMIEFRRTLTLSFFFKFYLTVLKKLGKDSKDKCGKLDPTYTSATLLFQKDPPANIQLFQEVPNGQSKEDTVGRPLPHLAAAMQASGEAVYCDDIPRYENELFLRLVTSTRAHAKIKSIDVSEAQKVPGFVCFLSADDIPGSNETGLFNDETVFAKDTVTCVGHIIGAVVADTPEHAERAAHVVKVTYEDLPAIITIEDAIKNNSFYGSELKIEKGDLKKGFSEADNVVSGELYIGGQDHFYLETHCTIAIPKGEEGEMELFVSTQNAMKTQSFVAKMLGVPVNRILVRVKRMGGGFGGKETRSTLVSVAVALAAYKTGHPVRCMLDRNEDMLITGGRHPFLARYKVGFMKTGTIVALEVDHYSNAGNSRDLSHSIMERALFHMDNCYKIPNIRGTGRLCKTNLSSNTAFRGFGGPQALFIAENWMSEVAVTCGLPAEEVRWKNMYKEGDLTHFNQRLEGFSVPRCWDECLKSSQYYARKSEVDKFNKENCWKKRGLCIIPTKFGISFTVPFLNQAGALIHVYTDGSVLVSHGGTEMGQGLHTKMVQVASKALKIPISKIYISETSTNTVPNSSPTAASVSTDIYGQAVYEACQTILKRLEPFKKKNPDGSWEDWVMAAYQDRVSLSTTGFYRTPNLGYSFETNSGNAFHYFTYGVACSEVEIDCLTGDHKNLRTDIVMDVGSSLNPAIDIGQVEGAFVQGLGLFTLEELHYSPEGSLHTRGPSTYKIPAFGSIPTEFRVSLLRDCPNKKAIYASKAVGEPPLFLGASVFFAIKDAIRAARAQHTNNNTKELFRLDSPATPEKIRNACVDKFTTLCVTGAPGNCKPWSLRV

SMILES: O=c1cc(O)c2ccccc2o1 [4-hydroxycoumarin]
mode of inhibition against xanthine oxidase (xanthine oxidase [1]): competitive inhibition

inhibition at 100 µg/mL (xanthine oxidase [2]; [5]): 0%
SMILES: CCCCCCCCCCCCCCCCCCCCCCCC [Compound 5, Tetracosane]

inhibition at 0.39 µg/mL (xanthine oxidase [2]; 0.39 μg/mL, read-out: Percentage of xanthine oxidase inhibition): 39.6 ± 0.68%
inhibition at 0.78 µg/mL (xanthine oxidase [2]; 0.78 μg/mL, read-out: Percentage of xanthine oxidase inhibition): 54.14 ± 0.34%
inhibition at 1.56 µg/mL (xanthine oxidase [2]; 1.56 μg/mL, read-out: Percentage of xanthine oxidase inhibition): 66.49 ± 0.05%
inhibition at 3.13 µg/mL (xanthine oxidase [2]; 3.13 μg/mL, read-out: Percentage of xanthine oxidase inhibition): 76.17 ± 0.52%
inhibition at 6.25 µg/mL (xanthine oxidase [2]; [6]): 86.02 ± 0.14%
inhibition at 12.5 µg/mL (xanthine oxidase [2]; [6]): 91.75 ± 0.22%
inhibition at 25 µg/mL (xanthine oxidase [2]; [6]): 95.04 ± 0.86%
inhibition at 50 µg/mL (xanthine oxidase [2]; [6]): 96.91 ± 0.06%
IC50 (xanthine oxidase [2]): 2.79 µM
SMILES: COc1cc(O)c(C)c2c(=O)oc(O)c(C)c12 [Compound 1, 3,7-dihydroxy-5-methoxy-4,8-dimethyl-isocoumarin]

SMILES: O=C1CCc2ccccc2O1 [dihydrocoumarin]
mode of inhibition against xanthine oxidase (xanthine oxidase [1]): competitive inhibition

SMILES: O=c1ccc2ccc(O)cc2o1 [7-hydroxycoumarin]
mode of inhibition against xanthine oxidase (xanthine oxidase [1]): competitive inhibition

inhibition at 100 µg/mL (xanthine oxidase [2]; [5]): 0%
SMILES: CCCCCCCCCCCCCCCCC(=O)O [Compound 6, Margaric acid]

SMILES: O=c1ccc2cc(O)c(O)cc2o1 [Esculetin]
mode of inhibition against xanthine oxidase (xanthine oxidase [1]): competitive inhibition
relative potency among selected coumarins against xanthine oxidase (xanthine oxidase [1]): most potent inhibitor
xanthine oxidase inhibitory activity (in words) (xanthine oxidase [3]): strong

SMILES: CC[C@H](/C=C/[C@@H](C)[C@H]1CC[C@H]2[C@@H]3CC=C4C[C@@H](O)CC[C@]4(C)[C@H]3CC[C@]12C)C(C)C [Compound 4, Stigmasterol]
inhibition at 100 µg/mL (xanthine oxidase [2]; [5]): 0%

SMILES: COc1cc2ccc(=O)oc2cc1O [scopoletin]
mode of inhibition against xanthine oxidase (xanthine oxidase [1]): competitive inhibition

SMILES: CCCC/C=C\CCCCCCCCCC1=C(O)C(=O)C=C(OC)C1=O [Compound 3, Maesanin]
inhibition at 100 µg/mL (xanthine oxidase [2]; [6]): 0%

SMILES: Oc1ncnc2[nH]ncc12 [Allopurinol, allopurinol, reference compound]
inhibition at 0.0064 µg/mL (xanthine oxidase [2]; [6]): 4.12%
inhibition at 0.032 µg/mL (xanthine oxidase [2]; [6]): 17.8%
inhibition at 0.16 µg/mL (xanthine oxidase [2]; [6]): 29.5%
inhibition at 0.8 µg/mL (xanthine oxidase [2]; [6]): 93.7%
inhibition at 4 µg/mL (xanthine oxidase [2]; [6]): 98.9%
inhibition at 20 µg/mL (xanthine oxidase [2]; [6]): 99%
inhibition at 100 µg/mL (xanthine oxidase [2]; [6]): 99.8%

SMILES: O=c1ccc2ccccc2o1 [coumarin]
mode of inhibition against xanthine oxidase (xanthine oxidase [1]): competitive inhibition

SMILES: Cc1cc(=O)oc2cc(O)c(O)cc12 [7-hydroxy-4-methylesculetin]
mode of inhibition against xanthine oxidase (xanthine oxidase [1]): competitive inhibition

SMILES: O=c1oc2cc(O)cc(O)c2cc1-c1cccc(O)c1 [5,7-dihydroxy-3-(3-hydroxyphenyl) coumarin]
xanthine oxidase inhibitory activity relative to allopurinol (xanthine oxidase [4]): 7 fold

inhibition at 6.25 µg/mL (xanthine oxidase [2]; [6]): 9.11 ± 0.28%
inhibition at 12.5 µg/mL (xanthine oxidase [2]; [6]): 14.5 ± 0.45%
inhibition at 25 µg/mL (xanthine oxidase [2]; [6]): 36.31 ± 0.08%
inhibition at 50 µg/mL (xanthine oxidase [2]; [6]): 74.08 ± 0.5%
xanthine oxidase inhibitory activity (in words) (xanthine oxidase [2]; isolated compounds): low activity
IC50 (xanthine oxidase [2]): 59 µM
SMILES: COC1=CC(=O)C(O)=C(CCCCCCC/C=C\CCCCCCCC2=C(O)C(=O)C=C(OC)C2=O)C1=O [Compound 2, Ardisiaquinone A]
